What all share (assay type): in vivo
What all share (conditions): 320 g/ha, scored visually after about 3 weeks vs untreated controls

One test concerns Viola tricolor (VIOTR). As to the kind of experiment: Pre-emergence herbicidal action against VIOTR. An excerpt:
(§1) VIOTR: Viola tricolor 1. Pre-Emergence Herbicidal Action and Crop Plant Compatibility Seeds of monocotyledonous and dicotyledonous weed plants and crop plants are placed in plastic or organic planting pots and covered with soil. The compounds of the invention, formulated in the form of wettable powders (WP) or as emulsion concentrates (EC), are then applied onto the surface of the covering soil as aqueous suspension or emulsion with addition of 0.5% additive at a water application rate of […] (converted). After the treatment, the pots are placed in a greenhouse and kept under good growth conditions for the trial plants. After about 3 weeks, the effect of the preparations is scored visually in comparison with untreated controls as percentages. The tables below show the herbicidal activity of numerous compounds according to the invention against important harmful plants. For example, 100% activity=the plants have died, 0% activity=like control plants.

The subject of test [1] is Amaranthus retroflexus (AMARE). As to the kind of experiment: Pre-emergence herbicidal action against AMARE. A digest of the protocol:
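Formulated compounds (WP or EC) sprayed onto soil covering sown seeds, with 0.5% additive at […] water (converted). Greenhouse-grown about 3 weeks, then damage scored visually as percent versus untreated controls (100% = dead, 0% = like control).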

In test [2] the test system is Cyperus esculentus (CYPES). Put plainly: Pre-emergence herbicidal action against CYPES.
Description: as §1, with “CYPES: Cyperus esculentus” for “VIOTR: Viola tricolor”

Another test relates to Veronica persica (VERPE). Put plainly: Pre-emergence herbicidal action against VERPE.
Description: as §1, with “VERPE: Veronica persica” for “VIOTR: Viola tricolor”

Test [3] relates to Abutilon theophrasti (ABUTH). Put plainly: Pre-emergence herbicidal action against ABUTH.
Description: as §1, with “ABUTH: Abutilon theophrasti” for “VIOTR: Viola tricolor”

The next test deals with Stellaria media (STEME). As to the kind of experiment: Pre-emergence herbicidal action against STEME. A digest of the protocol:
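Weed seeds are sown in pots under soil, and WP or EC formulations are applied pre-emergence to the soil surface as an aqueous suspension or emulsion with 0.5% additive. After about 3 weeks in the greenhouse, effect is scored visually as % versus untreated controls (100% = plants dead, 0% = like control).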

For a further test, the system named is Setaria viridis (SETVI). Put plainly: Pre-emergence herbicidal action against SETVI.
Description: as §1, with “SETVI: Setaria viridis” for “VIOTR: Viola tricolor”

The test system of test [4] is Echinochloa crus-galli (ECHCG). As to the kind of experiment: Pre-emergence herbicidal action against ECHCG.
Description: as §1, with “ECHCG: Echinochloa crus-galli” for “VIOTR: Viola tricolor”

Take `Cn1ncc(C(=O)c2ccc(C(F)(F)F)c3c2OCS3(=O)=O)c1O` [Example 1-43]: the “Pre-emergence action against VIOTR” value in the test with Viola tricolor (VIOTR) turned out to be 100%. Also, the “Pre-emergence action against AMARE” value in test [1] is given as 100%. In test [2], the “Pre-emergence action against CYPES” value is listed as 100%. Besides, the “Pre-emergence action against VERPE” value in the test on Veronica persica (VERPE) came out at 100%. For the same compound, the “Pre-emergence action against ABUTH” value in test [3] turned out to be 90%. The “Pre-emergence action against STEME” value with Stellaria media (STEME) is listed as 90%. Further, in the test with Setaria viridis (SETVI), the “Pre-emergence action against SETVI” value is 100%. For the same compound, the “Pre-emergence action against ECHCG” value in test [4] worked out at 100%.

The record behind these values is patent publication US20210323950A1, “HERBICIDALLY ACTIVE BICYCLIC BENZOYLPYRAZOLES” (Bayer Aktiengesellschaft, priority 2018, published 2021).
